Laboratory results taken from patent US7736636B2, “Method for treating occlusive vascular diseases & wound healing” (priority 2004, dated 2010).
Entries after “also recorded” stand apart in the source; their conditions may differ. Read-outs that look alike come from different tables or passages of the source.

Columns and labels:
[1] = tested on: CAM of 10-day-old chick embryos; test: Nicotine, nicotinic acid and FGF2 alone and combined, branch points (Table 2, titled Release of FGF2 From Endothelial Cells); assay type: in vivo; settings: for Average number of branch Points ± SD: n = 16, control 86 ± 14
Experimental: (§1) Chorioallantoic membrane (CAM) Model of Angiogenesis: In vivo Neovascularization was examined by methods described previously. 9-12 Ten-day-old chick embryos were purchased from SPAFAS (Preston, Conn.) and incubated at 37° C. with 55% relative humidity. A hypodermic needle was used to make a small hole in the shell concealing the air sac, and a second hole was made on the broad side of the egg, directly over an avascular portion of the embryonic membrane that was identified by candling. A false air sac was created beneath the second hole by the application of negative pressure at the first hole, causing the CAM to separate from the shell. A window approximately 1.0 cm 2 was cut in the shell over the dropped CAM with a small-crafts grinding wheel (Dremel, division of Emerson Electric Co.), allowing direct access to the underlying CAM. FGF2 (1 μg/mL) was used as a standard proangiogenic agent to induce new blood vessel branches on the CAM of 10-day-old embryos. Sterile disks of No. 1 filter paper (Whatman International) were pretreated with 3 mg/mL cortisone acetate. Nicotine, nicotinic acid analogs, FGF2 or control solvents, and inhibitors were then applied to the disks and the disks allowed to dry. The disks were then suspended in PBS and placed on growing CAMs. Filters treated were placed on the first day of the 3-day incubation, with antibody to FGF2 added 30 minutes later to selected samples as indicated. At 24 hours, the MAPK cascade inhibitor PD 98059 was also added to CAMs topically by means of the filter disks.
Microscopic Analysis of CAM Sections: After incubation at 37° C. with 55% relative humidity for 3 days, the CAM tissue directly beneath each filter disk was resected from control and treated CAM samples. Tissues were washed 3× with PBS, placed in 35-mm Petri dishes (Nalge Nunc), and examined under an SV6 stereomicroscope (Zeiss) at ×50 magnification. Digital images of CAM sections exposed to filters were collected using a 3-charge-coupled device color video camera system (Toshiba) and analyzed with Image-Pro software (Media Cybernetics). The number of vessel branch points contained in a circular region equal to the area of each filter disk were counted. […] The resulting angiogenesis index is the mean±SEM of new branch points in each set.

[2] = tested on: CAM of 10-day-old chick embryos; test: Chorioallantoic membrane (CAM) model of angiogenesis, Table 1; assay type: in vivo; settings: for Mean Number of Branch Points ± SD: n = 8, control 76 ± 10
Experimental: as §1
Microscopic Analysis of CAM Sections: After incubation at 37° C. with 55% relative humidity for 3 days, the CAM tissue directly beneath each filter disk was resected from control and treated CAM samples. Tissues were washed 3× with PBS, placed in 35-mm Petri dishes (Nalge Nunc), and examined under an SV6 stereomicroscope (Zeiss) at ×50 magnification. Digital images of CAM sections exposed to filters were collected using a 3-charge-coupled device color video camera system (Toshiba) and analyzed with Image-Pro software (Media Cybernetics). The number of vessel branch points contained in a circular region equal to the area of each filter disk were counted. One image was counted in each CAM preparation, and findings from 8 to 10 CAM preparations were analyzed for each treatment condition (Nicotine, nicotinic acid analogs). The resulting angiogenesis index is the mean±SEM of new branch points in each set.

[3] = tested on: normal human dermal fibroblast cells (NHDF); settings: in vitro wound healing
Experimental: Additionally, a 3-dimensional wound healing method already established in our Laboratory will be utilized in this study (see below).
In Vitro 3D Wound Healing Assay of Human Dermal Fibroblast Cells:
Step 1: Prepare Contracted Collagen Gels: • 1) Coat 24-well plate with 350 ul 2% BSA at RT for 2 hr, • 2) 80% confluent NHDF (normal human dermal fibroblast cells, Passage 5-9) are trypsinized and neutralized with growth medium, centrifuge and wash once with PBS • 3) Prepare collagen-cell mixture, mix gently and always on ice:
• 4) Aspire 2% BSA from 24 well plate, add collagen-cell mixture 350 ul/well, and incubate the plate in 37° C. CO2 incubator. • 5) After 1 hr, add DMEM+5% FBS medium 0.5 ml/well, use a 10 ul tip Detach the collagen gel from the edge of each well, then incubate for 2 days. The fibroblast cells will contract the collagen gel
Step 2: Prepare 3D Fibrin Wound Clot and Embed Wounded Collagen Culture • 1) Prepare fibrinogen solution (1 mg/ml) with or without testing regents. 350 ul fibrinogen solution for each well in eppendorf tube.
• 2) Cut each contracted collagen gel from middle with scissors. Wash the gel with PBS and transfer the gel to the center of each well of 24 well plate • 3) Add 1.5 ul of human thrombin (0.25 U/ul) to each tube, mix well and then add the solution around the collagen gel, the solution will polymerize in 10 mins. […]

“FGF2: basic fibroblast growth factor, used as a standard proangiogenic agent” was tested, and the “Average number of branch Points ± SD” value ([1]; 0.5 ug) was 115 ± 08, the “Average number of branch Points ± SD” value ([1]; 1.0 ug) was 195 ± 22 and the “Mean Number of Branch Points ± SD” value ([2]; 1.0 μg) was 195 ± 22.

In the case of `CN1CCCC1c1cccnc1` (stereo not drawn) [Nicotine], the “Stimulation of wound healing (in words)” value [3] is reported as “potent stimulation of wound healing”, the “Average number of branch Points ± SD” value ([1]; 0.05 ug) is reported as 145 ± 10 and the “Average number of branch Points ± SD” value ([1]; 0.1 ug) is reported as 192 ± 11. For the same compound, the “Pro-angiogenesis effect compared with FGF2 (in words)” value ([1]; Table 2) was “comparable pro-angiogenesis effect to that shown with FGF2”, the “New blood vessel generation / branch formation in the CAM model (in words)” value [2] was “promoted new blood vessel generation; also recorded: promotes new blood vessel branch formation” and the “Mean Number of Branch Points ± SD” value ([2]; 0.1 μg) was 192 ± 11.

With `O=C(O)c1cccnc1` [Nicotinic acid] the “New blood vessel generation / branch formation in the CAM model (in words)” value [2] was “promoted new blood vessel generation”, the “Mean Number of Branch Points ± SD” value ([2]; 1.0 μg) was 155 ± 16 and the “New blood vessel generation / branch formation in the CAM model (in words)” value ([2]; listed as nicotinic acid) was “promotes new blood vessel branch formation”.
